# Reference: PubChem BioAssay (NCI)
#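 Grown in 96-well plates, cells were treated for 48 hours with each compound at five concentrations. Insufficient inhibition: endpoint recorded as highest concentration tested. TGI: concentration producing complete growth inhibition.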
# How the values were obtained:
# Assay in all cases: NCI tumour cell line growth inhibition, 48 h
# [1] = test system: K-562 leukemia
# [2] = test system: HS 578T breast
# [3] = test system: SNB-75 CNS
# [4] = test system: LOX IMVI melanoma
# [5] = test system: MOLT-4 leukemia
# [6] = test system: MCF7 breast
# [7] = test system: NCI-H226 lung
# [8] = test system: OVCAR-8 ovarian
# [9] = test system: SF-295 CNS
# [10] = test system: ACHN renal
# [11] = test system: OVCAR-3 ovarian
# [12] = test system: HT29 colon
# [13] = test system: RPMI-8226 leukemia
# [14] = test system: SK-MEL-28 melanoma
# [15] = test system: CCRF-CEM leukemia
# [16] = test system: DU-145 prostate
# [17] = test system: 786-0 renal
# [18] = test system: OVCAR-5 ovarian
# [19] = test system: SK-OV-3 ovarian
# [20] = test system: SN12C renal
# [21] = test system: SNB-19 CNS
# [22] = test system: HOP-92 NSCLC
# [23] = test system: IGROV1 ovarian
# [24] = test system: U251 CNS
# [25] = test system: MDA-MB-435
# [26] = test system: A549 NSCLC
# [27] = test system: MDA-N
# [28] = test system: PC-3 prostate
# [29] = test system: HOP-62 NSCLC
# [30] = test system: A498 renal
# [31] = test system: HCT-116 colon
# [32] = test system: SW-620 colon
# [33] = test system: MDA-MB-231 breast
# [34] = test system: BT-549 breast
# [35] = test system: TK-10 renal
# [36] = test system: EKVX NSCLC
# [37] = test system: SF-539 CNS
# [38] = test system: NCI-H522 lung
# [39] = test system: HL-60(TB) leukemia
# [40] = test system: SK-MEL-5 melanoma
# [41] = test system: UACC-62 melanoma
# [42] = test system: NCI-H460 lung
# [43] = test system: SK-MEL-2 melanoma
# [44] = test system: UO-31 renal
# [45] = test system: RXF 393 renal
# [46] = test system: UACC-257 melanoma
# [47] = test system: CAKI-1 renal
# [48] = test system: SR leukemia
# [49] = test system: HCT-15 colon
# [50] = test system: KM12 colon
# [51] = test system: OVCAR-4 ovarian
# [52] = test system: NCI/ADR-RES ovarian
# [53] = test system: COLO 205 colon
# [54] = test system: NCI-H23 lung
# [55] = test system: SF-268 CNS
# [56] = test system: HCC-2998 colon
# [57] = test system: M14 melanoma
# [58] = test system: T-47D breast
# [59] = test system: MALME-3M melanoma
smiles,measurement,setting,value
OCC1OC(Oc2cc(O)cc(/C=C/c3ccc(O)cc3)c2)C(O)C(O)C1O (centres undefined),TGI,[1],> 100 µM
same,TGI,[2],> 100 µM
same,TGI,[3],> 100 µM
same,TGI,[4],> 100 µM
same,TGI,[5],> 100 µM
same,TGI,[6],> 100 µM
same,TGI,[7],> 100 µM
same,TGI,[8],> 100 µM
same,TGI,[9],> 100 µM
same,TGI,[10],> 100 µM
same,TGI,[11],> 100 µM
same,TGI,[12],> 100 µM
same,TGI,[13],> 100 µM
same,TGI,[14],> 100 µM
same,TGI,[15],> 100 µM
same,TGI,[16],> 100 µM
same,TGI,[17],> 100 µM
same,TGI,[18],> 100 µM
same,TGI,[19],> 100 µM
same,TGI,[20],> 100 µM
same,TGI,[21],> 100 µM
same,TGI,[22],> 100 µM
same,TGI,[23],> 100 µM
same,TGI,[24],> 100 µM
same,TGI,[25],> 100 µM
same,TGI,[26],> 100 µM
same,TGI,[27],> 100 µM
same,TGI,[28],> 100 µM
same,TGI,[29],> 100 µM
same,TGI,[30],> 100 µM
same,TGI,[31],> 100 µM
same,TGI,[32],> 100 µM
same,TGI,[33],> 100 µM
same,TGI,[34],> 100 µM
same,TGI,[35],> 100 µM
same,TGI,[36],> 100 µM
same,TGI,[37],> 100 µM
same,TGI,[38],> 100 µM
same,TGI,[39],> 100 µM
same,TGI,[40],> 100 µM
same,TGI,[41],> 100 µM
same,TGI,[42],> 100 µM
same,TGI,[43],> 100 µM
same,TGI,[44],> 100 µM
same,TGI,[45],> 100 µM
same,TGI,[46],> 100 µM
same,TGI,[47],> 100 µM
same,TGI,[48],> 100 µM
same,TGI,[49],> 100 µM
same,TGI,[50],> 100 µM
same,TGI,[51],> 100 µM
same,TGI,[52],> 100 µM
CCOP(=O)(OCC)/C(C#N)=C/c1ccc(-c2ccc(F)cc2F)o1,TGI,[1],38.1 µM
same,TGI,[3],61.3 µM
same,TGI,[4],32.9 µM
same,TGI,[53],30.7 µM
same,TGI,[5],28.4 µM
same,TGI,[6],43 µM
same,TGI,[54],33.6 µM
same,TGI,[7],36 µM
same,TGI,[8],33.2 µM
same,TGI,[9],30.8 µM
same,TGI,[10],26.6 µM
same,TGI,[55],44.3 µM
same,TGI,[11],30.1 µM
same,TGI,[12],33.1 µM
same,TGI,[13],51.9 µM
same,TGI,[14],28.1 µM
same,TGI,[15],38.7 µM
same,TGI,[16],42.5 µM
same,TGI,[17],27.4 µM
same,TGI,[56],27.6 µM
same,TGI,[18],31.7 µM
same,TGI,[19],26.9 µM
same,TGI,[57],31.7 µM
same,TGI,[20],29.7 µM
same,TGI,[21],33.3 µM
same,TGI,[22],35.7 µM
same,TGI,[23],34.6 µM
same,TGI,[24],32.6 µM
same,TGI,[25],27 µM
same,TGI,[26],30.2 µM
same,TGI,[27],48.7 µM
same,TGI,[28],24.2 µM
same,TGI,[29],33.8 µM
same,TGI,[30],28.8 µM
same,TGI,[31],32.3 µM
same,TGI,[32],38.5 µM
same,TGI,[33],36.6 µM
same,TGI,[34],24.5 µM
same,TGI,[35],25.5 µM
same,TGI,[36],31 µM
same,TGI,[37],35.8 µM
same,TGI,[38],37 µM
same,TGI,[39],34.9 µM
same,TGI,[40],35.7 µM
same,TGI,[41],23.4 µM
same,TGI,[42],44.2 µM
same,TGI,[43],44 µM
same,TGI,[44],26.3 µM
same,TGI,[45],> 100 µM
same,TGI,[46],26.8 µM
same,TGI,[47],28.6 µM
same,TGI,[48],33.2 µM
same,TGI,[58],8.35 µM
same,TGI,[49],28.7 µM
same,TGI,[50],31.6 µM
same,TGI,[51],33.4 µM
same,TGI,[52],58.9 µM
same,TGI,[59],33.4 µM
CCN1CN(c2ccccc2)C2(CCN(CCCSc3ccc(F)cc3)CC2)C1=O,TGI,[1],37.1 µM
same,TGI,[3],30.1 µM
same,TGI,[4],31.5 µM
same,TGI,[53],6.48 µM
same,TGI,[5],23.7 µM
same,TGI,[6],12.2 µM
same,TGI,[54],24.1 µM
same,TGI,[7],33.7 µM
same,TGI,[8],30.5 µM
same,TGI,[9],25.7 µM
same,TGI,[10],24.1 µM
same,TGI,[55],28.3 µM
same,TGI,[11],27.2 µM
same,TGI,[12],13.3 µM
same,TGI,[13],46.8 µM
same,TGI,[14],31 µM
same,TGI,[15],24.6 µM
same,TGI,[16],17.9 µM
same,TGI,[17],26.6 µM
same,TGI,[18],20.5 µM
same,TGI,[19],33.2 µM
same,TGI,[57],21.6 µM
same,TGI,[20],20.5 µM
same,TGI,[21],24.3 µM
same,TGI,[23],19.7 µM
same,TGI,[25],27.3 µM
same,TGI,[26],21.2 µM
same,TGI,[27],26.4 µM
same,TGI,[28],28.1 µM
same,TGI,[29],12.6 µM
same,TGI,[31],14.9 µM
same,TGI,[32],26.1 µM
same,TGI,[33],29 µM
same,TGI,[34],21.4 µM
same,TGI,[35],26.3 µM
same,TGI,[36],21.2 µM
same,TGI,[37],21.5 µM
same,TGI,[38],30 µM
same,TGI,[39],26.6 µM
same,TGI,[40],13.8 µM
same,TGI,[41],30.2 µM
same,TGI,[44],18.1 µM
same,TGI,[45],25.7 µM
same,TGI,[46],17.1 µM
same,TGI,[47],35.7 µM
same,TGI,[48],36.5 µM
same,TGI,[58],17.2 µM
same,TGI,[49],24.9 µM
same,TGI,[50],28.9 µM
same,TGI,[52],28.2 µM
same,TGI,[59],36.1 µM
COC(=O)[C@@H](O)[C@]1(C(=O)OC)C2O[C@@H](OC)[C@@H]1CCCCCC[C@H]2O,TGI,[1],> 100 µM
same,TGI,[2],> 100 µM
same,TGI,[3],> 100 µM
same,TGI,[4],> 100 µM
same,TGI,[53],> 100 µM
same,TGI,[5],> 100 µM
same,TGI,[54],> 100 µM
same,TGI,[7],> 100 µM
same,TGI,[8],> 100 µM
same,TGI,[9],> 100 µM
same,TGI,[10],> 100 µM
same,TGI,[55],> 100 µM
same,TGI,[11],> 100 µM
same,TGI,[12],> 100 µM
same,TGI,[13],> 100 µM
same,TGI,[14],> 100 µM
same,TGI,[15],> 100 µM
same,TGI,[17],> 100 µM
same,TGI,[56],> 100 µM
same,TGI,[18],> 100 µM
same,TGI,[19],> 100 µM
same,TGI,[57],> 100 µM
same,TGI,[20],> 100 µM
same,TGI,[21],> 100 µM
same,TGI,[23],> 100 µM
same,TGI,[24],> 100 µM
same,TGI,[25],> 100 µM
same,TGI,[26],> 100 µM
same,TGI,[27],> 100 µM
same,TGI,[28],> 100 µM
same,TGI,[29],> 100 µM
same,TGI,[31],> 100 µM
same,TGI,[32],> 100 µM
same,TGI,[33],> 100 µM
same,TGI,[34],> 100 µM
same,TGI,[35],> 100 µM
same,TGI,[36],> 100 µM
same,TGI,[37],> 100 µM
same,TGI,[38],> 100 µM
same,TGI,[40],> 100 µM
same,TGI,[41],> 100 µM
same,TGI,[42],> 100 µM
same,TGI,[43],> 100 µM
same,TGI,[44],> 100 µM
same,TGI,[45],> 100 µM
same,TGI,[46],> 100 µM
same,TGI,[47],> 100 µM
same,TGI,[48],> 100 µM
same,TGI,[49],> 100 µM
same,TGI,[50],> 100 µM
same,TGI,[51],> 100 µM
same,TGI,[52],> 100 µM
same,TGI,[59],> 100 µM
